{"source": "patent US9521847B2", "about": "“Synergistic weed control from applications of pyridine carboxylic acid herbicides and synthetic auxin herbicides and/or auxin transport inhibitors” (Dow AgroSciences LLC, priority 2014, dated 2016)", "key": {"[1]": {"system": "blackgrass (Alopecurus myosuroides, ALOMY)", "experiment": "Greenhouse postemergence trial, % visual injury", "format": "in vivo", "conditions": "140 g ae/ha"}, "[2]": {"system": "pigweed (AMARE, Amaranthus retroflexus)", "experiment": "Patio postemergence trial, % visual injury", "format": "in vivo", "conditions": "280 g ae/ha alone, 20-22 d", "protocol": "(§1) The plants were grown for 7-36 days (d) on a fenced, open-air patio. Nutrients and water were added on a regular basis.\n(§2) Temperatures and photoperiods were dependent on the natural weather conditions during the trials. Weather conditions during trials were conducive for plant growth and development."}, "[3]": {"system": "kochia (KCHSC, Kochia scoparia)", "experiment": "Patio postemergence trial, % visual injury", "format": "in vivo", "conditions": "280 g ae/ha alone, 20-22 d", "protocol": "as §1, §2"}, "spring wheat (TRZAS)": {"system": "spring wheat (TRZAS)", "experiment": "Small plot field trial (Canada), crop phytotoxicity (% visual injury)", "format": "in vivo, Triticum aestivum", "conditions": "560 g ae/ha alone", "from_the_text": "(§3) Small plot field trials were established in Canada to evaluate efficacy and crop safety of Compound 7 with 2,4-D EHE. Trials were established as randomized complete blocks with 3-4 replicates. Individual plots were 2-3 meters (m) wide and 8-10 m long. Applications were made with backpack or tractor-mounted sprayers delivering a spray volume output of 100 liters per hectare (L/ha) using pressurized carbon dioxide (CO2) as a propellant. Compound 7 was combined with 2,4 D EHE (660 g ae/L EC formulation) and applied to spring wheat (TRZAS), and the phytotoxicity of the herbicidal compositions was measured. In addition, the efficacy of the herbicidal composition on Canadian thistle ([…], Cirsium arvense), kochia (KCHSC, Kochia scoparia), mallow (MALPU, Marva pusilla), wild buckwheat (POLCO, Polygonum convolvulus), and lady's thumb (POLPE, Polygonum persicaria) was evaluated."}, "[4]": {"system": "wild buckwheat (POLCO, Polygonum convolvulus)", "experiment": "Small plot field trial (Canada), % visual injury", "format": "in vivo", "conditions": "560 g ae/ha alone, 15 DAA", "protocol": "as §3, with “Trials” for “Small plot field trials were established in Canada to evaluate efficacy and crop safety of Compound 7 with 2,4-D EHE. Trials”, “kochia (KCHSC, Kochia” left out, “([…]” for “(MALPU, Marva”"}, "[5]": {"system": "CIRAR = Cirsium arvense (Canadian thistle)", "experiment": "Small plot field trial (Canada), % visual injury", "format": "in vivo", "conditions": "560 g ae/ha alone, 46-64 DAA", "protocol": "as §3, with “Trials” for “Small plot field trials were established in Canada to evaluate efficacy and crop safety of Compound 7 with 2,4-D EHE. Trials”, “kochia (KCHSC, Kochia” left out, “([…]” for “(MALPU, Marva”"}, "[6]": {"system": "MALPU = Malva pusilla (mallow)", "experiment": "Small plot field trial (Canada), % visual injury", "format": "in vivo", "conditions": "560 g ae/ha alone, 26-33 DAA", "protocol": "as §3, with “Trials” for “Small plot field trials were established in Canada to evaluate efficacy and crop safety of Compound 7 with 2,4-D EHE. Trials”, “kochia (KCHSC, Kochia” left out, “([…]” for “(MALPU, Marva”"}, "[7]": {"system": "kochia (KCHSC, Kochia scoparia)", "experiment": "Small plot field trial (Canada), % visual injury", "format": "in vivo", "conditions": "560 g ae/ha alone, 46-64 DAA", "protocol": "as §3, with “Trials” for “Small plot field trials were established in Canada to evaluate efficacy and crop safety of Compound 7 with 2,4-D EHE. Trials”, “kochia (KCHSC, Kochia” left out, “([…]” for “(MALPU, Marva”"}, "[8]": {"system": "lady's thumb (POLPE, Polygonum persicaria)", "experiment": "Small plot field trial (Canada), % visual injury", "format": "in vivo", "conditions": "560 g ae/ha alone, 14-16 DAA", "protocol": "as §3, with “Trials” for “Small plot field trials were established in Canada to evaluate efficacy and crop safety of Compound 7 with 2,4-D EHE. Trials”, “kochia (KCHSC, Kochia” left out, “([…]” for “(MALPU, Marva”"}, "winter wheat (TRZAW)": {"system": "winter wheat (TRZAW)", "conditions": "winter wheat (Triticum aestivum), in vivo"}, "[9]": {"system": "soybean (Glycine max, GIAMA)", "experiment": "Greenhouse postemergence trial, % visual injury", "format": "in vivo", "conditions": "GLXMA"}, "[10]": {"system": "Indian hedge mustard (Sisymbrium orientale, SSYOR)", "experiment": "Greenhouse postemergence trial, % visual injury", "format": "in vivo"}, "[11]": {"system": "rutabaga (Brassica napus var. napobrassica, BRSNA)", "experiment": "Greenhouse postemergence trial, % visual injury", "format": "in vivo"}, "[12]": {"system": "brown mustard (Brassica juncea, BRSJU)", "experiment": "Greenhouse postemergence trial, % visual injury", "format": "in vivo"}, "[13]": {"system": "Chinese kale (Brassica alboglabra, BRSAG)", "experiment": "Greenhouse postemergence trial, % visual injury", "format": "in vivo", "conditions": "for % visual injury, Obs: BRSAG, compound 1 (EC) 5 g ae/ha"}, "[14]": {"system": "barnyardgrass (Echinochloa crus-galli, ECHCG)", "experiment": "Greenhouse postemergence trial, % visual injury", "format": "in vivo"}, "[15]": {"system": "turnip (Brassica rapa, BRSRR)", "experiment": "Greenhouse postemergence trial, % visual injury", "format": "in vivo", "conditions": "for % visual injury, Obs: BRSRR, compound 1 (EC) 5 g ae/ha"}, "[16]": {"conditions": "5 g ae/ha alone (compound 1 as EC), 20-22 d"}}, "data": [{"smiles": "CCCCC(CC)COC(=O)COc1ccc(Cl)cc1Cl", "note": "(stereo not shown) [2,4-D EHE, 2-ethylhexyl (2,4-dichlorophenoxy)acetate, reference compound]", "values": [{"measurement": "% visual injury, Obs", "setting": "[1]", "value": 0, "unit": "%"}, {"measurement": "% visual injury Obs", "setting": "[2]", "value": 50, "unit": "%"}, {"measurement": "% visual injury Obs", "setting": "[3]", "value": 10, "unit": "%"}, {"measurement": "% visual injury Obs", "setting": "spring wheat (TRZAS); 6-8 DAA", "value": 3, "unit": "%"}, {"measurement": "% visual injury Obs", "setting": "spring wheat (TRZAS); 14-16 DAA", "value": 0, "unit": "%"}, {"measurement": "% visual injury Obs", "setting": "[4]", "value": 51, "unit": "%"}, {"measurement": "% visual injury Obs", "setting": "[5]", "value": 65, "unit": "%"}, {"measurement": "% visual injury Obs", "setting": "[6]", "value": 74, "unit": "%"}, {"measurement": "% visual injury Obs", "setting": "[7]", "value": 25, "unit": "%"}, {"measurement": "% visual injury Obs", "setting": "[8]", "value": 55, "unit": "%"}, {"measurement": "% visual injury, Obs", "setting": "winter wheat (TRZAW)", "value": 0, "unit": "%"}]}, {"smiles": "Nc1c(F)c(-c2ccc3cc[nH]c3c2F)nc(C(=O)O)c1Cl", "note": "[compound 1]", "values": [{"measurement": "% visual injury, Obs", "setting": "[9]; 5 g ae/ha", "value": 95, "unit": "%"}, {"measurement": "% visual injury, Obs", "setting": "[9]; 10 g ae/ha", "value": 100, "unit": "%"}, {"measurement": "% visual injury (Obs)", "setting": "[10]; compound 1 SC 2.5 g ae/ha", "value": 13, "unit": "%"}, {"measurement": "% visual injury (Obs)", "setting": "[10]; compound 1 SC 5 g ae/ha", "value": 20, "unit": "%"}, {"measurement": "% visual injury Obs", "setting": "[11]; [16]", "value": 65, "unit": "%"}, {"measurement": "% visual injury, Obs", "setting": "[11]; BRSNA, compound 1 (EC) 5 g ae/ha, Table 63", "value": 65, "unit": "%"}, {"measurement": "% visual injury Obs", "setting": "[12]; [16]", "value": 60, "unit": "%"}, {"measurement": "% visual injury, Obs", "setting": "[12]; BRSJU, compound 1 (EC) 5 g ae/ha, Table 62", "value": 60, "unit": "%"}, {"measurement": "% visual injury Obs", "setting": "[13]; [16]", "value": 15, "unit": "%"}, {"measurement": "% visual injury, Obs", "setting": "[13]; Table 62", "value": 15, "unit": "%"}, {"measurement": "% visual injury, Obs", "setting": "[13]; Table 63", "value": 15, "unit": "%"}, {"measurement": "% visual injury, Obs", "setting": "[14]; ECHCG, 5 g ae/ha", "value": 65, "unit": "%"}, {"measurement": "% visual injury (Obs)", "setting": "[14]; compound 1 (EC) 5 g ae/ha", "value": 65, "unit": "%"}, {"measurement": "% visual injury, Obs", "setting": "[15]; Table 62", "value": 50, "unit": "%"}, {"measurement": "% visual injury, Obs", "setting": "[15]; Table 63", "value": 50, "unit": "%"}, {"measurement": "% visual injury (Obs)", "setting": "[15]; compound 1 SC 2.5 g ae/ha", "value": 45, "unit": "%"}, {"measurement": "% visual injury (Obs)", "setting": "[15]; compound 1 SC 5 g ae/ha", "value": 62, "unit": "%"}]}]}
